This assay deals with P. falciparum infected erythrocytes. Kind of assay: P. falciparum growth inhibition assay ([3H]hypoxanthine incorporation). It counts as cell-based, Plasmodium falciparum. The procedure:
P. falciparum Growth Inhibition Assay.
The sensitivity of P. falciparum infected erythrocytes to the compound was determined in duplicate using the [3H]hypoxanthine incorporation method with an inoculum of 0.5% parasitemia (ring stage) and 2% hematocrit. The parasites were grown in RPMI 1640, 25 mM HEPES and supplemented with 5% Albumax. Plates are incubated at 37° C., 5% CO2, 5% O2, 90% N2. After 24 h of incubation, [3H]hypoxanthine is added and plates are incubated for another 24 h. After that period, plates are harvested on a glass fiber filter using a TOMTEC Cell harvester 96. Filters are dried and melt on scintillator sheets and the bound radioactivity is quantified by use of a Wallac Microbeta Trilux (Model 1450 LS—Perkin Elmer). IC50s are determined using Grafit 7 program (Grafit program; Erithacus Software, Horley, Surrey, United Kingdom).
Each example compound was tested generally in accordance with the above-mentioned assay and the PfIC50 value for each compound is reported in the Table below and according to the following: […]

The mark [1] stands for this setting: Plasmodium falciparum, Erythrocyte, [3H]hypoxanthine incorporation, 0.5% parasitemia, 2% hematocrit, 48 h, read-out: PfIC50 Media.
[2] abbreviates: [3H]hypoxanthine incorporation, 0.5% parasitemia, 2% hematocrit, 48 h, read-out: PfIC50 Media.
[3] abbreviates: Plasmodium falciparum, Erythrocyte, read-out: average PfIC50.

Where two headings read alike, the source gives them in different places.

As for `Cn1cc(CC(O)COc2ccc(C(=O)N3CC[C@H](c4ccc(F)cc4)C3)cc2)cn1` (mixture of isomers) [Example 37, ((R)-3-(4-Fluorophenyl)pyrrolidin-1-yl)(4-(2-hydroxy-3-(1-methyl-1H-pyrazol-4-yl)propoxy)phenyl)methanone], under setting [1], the IC50 is 1000 to 5000 nM.
`CC(COc1ccc(C(=O)N2CC[C@H](c3ccc(F)cc3)C2)cc1)Cn1cnnn1` (single isomer, unassigned) [Example 1a]: the IC50 under setting [1] lay in the range of 100 to 500 nM.
In the case of `CC(COc1ccc(C(=O)N2CC[C@H](c3ccc(F)cc3)C2)cc1)Cn1cnnn1` (single isomer, unassigned) [Example 1b], the IC50 under setting [2] is less than 100 nM.
`O=C(c1ccc(OCC(F)Cn2cnnn2)cc1)N1CC[C@H](c2ccc(F)cc2)C1` (single isomer, unassigned) [Example 3a]: the IC50 under setting [1] fell in the range of 100 to 500 nM.
Consider `O=C(c1ccc(OCC(F)Cn2cnnn2)cc1)N1CC[C@H](c2ccc(F)cc2)C1` (single isomer, unassigned) [Example 3b], for which the IC50 is not above 50 nM under setting [3] and less than 100 nM under setting [2].
With `CC(O)(COc1ccc(C(=O)N2CC[C@H](c3ccc(F)cc3)C2)cc1)Cn1ncnn1` (single isomer, unassigned) [Example 9a], the IC50 under setting [1] was in the range of 100 to 500 nM.
With `CC(O)(COc1ccc(C(=O)N2CC[C@H](c3ccc(F)cc3)C2)cc1)Cn1cnnn1` (single isomer, unassigned) [Example 10a], under setting [1], the IC50 lay within 1000 to 5000 nM.
`O=C(c1ccc(OCC(O)Cc2cscn2)cc1)N1CC[C@H](c2ccc(F)cc2)C1` (single isomer, unassigned) [Example 35a]: the IC50 reads like this: under setting [1], less than 100 nM; under setting [3], not above 50 nM.
Take `O=C(c1ccc(OCC(O)Cc2cscn2)cc1)N1CC[C@H](c2ccc(F)cc2)C1` (single isomer, unassigned) [Example 35b]: under setting [2], the IC50 lay within 100 to 500 nM.
Regarding `Cn1ccc(CC(O)COc2ccc(C(=O)N3CC[C@H](c4ccc(F)cc4)C3)cc2)n1` (single isomer, unassigned) [Example 36a], under setting [1], the IC50 is less than 100 nM.
On to `O=C(c1ccc(OC[C@H](O)Cn2ncnn2)cc1)N1CCC(c2ccccc2F)C1` (single isomer, unassigned) [Example 40a], for which the IC50 under setting [1] was less than 100 nM and the IC50 under setting [3] is not above 50 nM.
For `O=C(c1ccc(OC[C@H](O)Cn2ncnn2)cc1)N1CCC(c2ccccc2F)C1` (single isomer, unassigned) [Example 40b], the IC50 under setting [2] lay within 100 to 500 nM.
`O=C(c1ccc(OC[C@H](O)Cn2ncnn2)cc1)N1CCC(c2cccc(F)c2)C1` (single isomer, unassigned) [Example 41a]: the IC50 under setting [3] was not above 50 nM and the IC50 under setting [2] is less than 100 nM.
Turning to `O=C(c1ccc(OC[C@H](O)Cn2ncnn2)cc1)N1CCC(c2cccc(F)c2)C1` (single isomer, unassigned) [Example 41b], under setting [1], the IC50 was in the range of 100 to 500 nM.
As for `O=C(c1ccc(OC[C@H](O)Cn2ncnn2)cc1)N1CCC(c2ccc(F)cc2F)C1` (single isomer, unassigned) [Example 42a], the IC50 under setting [1] is less than 100 nM and the IC50 under setting [3] was not above 50 nM.
Take `O=C(c1ccc(OC[C@H](O)Cn2ncnn2)cc1)N1CCC(c2ccc(F)cc2F)C1` (single isomer, unassigned) [Example 42b]: the IC50 under setting [2] was in the range of 100 to 500 nM.
Still for that read-out and setting: the result for `N#Cc1ccc(C2CCN(C(=O)c3ccc(OC[C@H](O)Cn4ncnn4)cc3)C2)cc1` (single isomer, unassigned) [Example 43a] reads 100 to 500 nM.
Regarding `N#Cc1ccc(C2CCN(C(=O)c3ccc(OC[C@H](O)Cn4ncnn4)cc3)C2)cc1` (single isomer, unassigned) [Example 43b], the IC50 under setting [2] is 1000 to 5000 nM.
Still for that read-out and setting: the result for `COc1ccc(C2CCN(C(=O)c3ccc(OC[C@H](O)Cn4ncnn4)cc3)C2)cc1` (single isomer, unassigned) [Example 44a] reads less than 100 nM.
On to `COc1ccc(C2CCN(C(=O)c3ccc(OC[C@H](O)Cn4ncnn4)cc3)C2)cc1` (single isomer, unassigned) [Example 44b], for which the IC50 under setting [2] is 500 to 1000 nM.
With `CC(C)(COc1ccc(C(=O)N2CC[C@H](c3ccc(F)cc3)C2)cc1)Cn1cnnn1` [Example 2, (R)-(4-(2,2-Dimethyl-3-(1H-tetrazol-1-yl)propoxy)phenyl)(3-(4-fluorophenyl)pyrrolidin-1-yl)methanone], under setting [1], the IC50 is 500 to 1000 nM.
Take `O=C(c1ccc(OCC(F)(F)Cn2cnnn2)cc1)N1CC[C@H](c2ccc(F)cc2)C1` [Example 4, (R)-(4-(2,2-Difluoro-3-(1H-tetrazol-1-yl)propoxy)phenyl)(3-(4-fluorophenyl)-pyrrolidin-1-yl)methanone]: the IC50 is, setting by setting: under setting [1], less than 100 nM; under setting [3], not above 50 nM.
For the compound `O=C(c1ccc(OC[C@H](O)Cn2cnnn2)cc1)N1CC[C@H](c2ccc(F)cc2)C1` [Example 5, ((R)-3-(4-Fluorophenyl)pyrrolidin-1-yl)(4-((R)-2-hydroxy-3-(1H-tetrazol-1-yl)propoxy)phenyl)methanone], the IC50 runs as follows: under setting [1], less than 100 nM; under setting [3], not above 50 nM.
Take `O=C(c1ccc(OC[C@@H](O)Cn2cnnn2)cc1)N1CC[C@H](c2ccc(F)cc2)C1` [Example 6, ((R)-3-(4-Fluorophenyl)pyrrolidin-1-yl)(4-((S)-2-hydroxy-3-(1H-tetrazol-1-yl)propoxy)phenyl)methanone]: the IC50 under setting [1] is 100 to 500 nM.
For the compound `O=C(c1ccc(OC[C@H](O)Cn2ncnn2)cc1)N1CC[C@H](c2ccc(F)cc2)C1` [Example 7, ((R)-3-(4-Fluorophenyl)pyrrolidin-1-yl)(4-((R)-2-hydroxy-3-(2H-tetrazol-2-yl)propoxy)phenyl)methanone], the IC50 is, setting by setting: under setting [1], less than 100 nM; under setting [3], not above 50 nM.
`O=C(c1ccc(OC[C@@H](O)Cn2ncnn2)cc1)N1CC[C@H](c2ccc(F)cc2)C1` [Example 8, ((R)-3-(4-fluorophenyl)pyrrolidin-1-yl)(4-((S)-2-hydroxy-3-(2H-tetrazol-2-yl)propoxy)phenyl) methanone]: the IC50 was less than 100 nM under setting [1] and 52 nM under setting [3].
For `CC(O)(COc1ccc(C(=O)N2CC[C@H](c3ccc(F)cc3)C2)cc1)Cn1ncnn1` (stereo partly drawn) [Example 9b, ((R)-3-(4-Fluorophenyl)pyrrolidin-1-yl)(4-(2-hydroxy-2-methyl-3-(2H-tetrazol-2-yl)propoxy)phenyl)methanone], the IC50 under setting [2] was in the range of 100 to 500 nM.
`CC(O)(COc1ccc(C(=O)N2CC[C@H](c3ccc(F)cc3)C2)cc1)Cn1cnnn1` (stereo partly drawn) [Example 10b, ((R)-3-(4-Fluorophenyl)pyrrolidin-1-yl)(4-(2-hydroxy-2-methyl-3-(1H-tetrazol-1-yl)propoxy)phenyl)methanone]: the IC50 under setting [2] is 1000 to 5000 nM.
As for `O=C(c1ccc(OC[C@H](F)Cn2ncnn2)cc1)N1CC[C@H](c2ccc(F)cc2)C1` [Example 11], the IC50 is, setting by setting: under setting [1], less than 100 nM; under setting [3], not above 50 nM.
Taken in the same sequence, the figures for `O=C(c1ccc(OC[C@@H](F)Cn2ncnn2)cc1)N1CC[C@H](c2ccc(F)cc2)C1` [Example 12] were less than 100 nM and not above 50 nM.
With `O=C(c1ccc(OC[C@H](O)Cn2ncnn2)cc1)N1CC[C@@H](c2ccc(F)cc2)C1` [Example 13, ((S)-3-(4-Fluorophenyl)pyrrolidin-1-yl)(4-((R)-2-hydroxy-3-(2H-tetrazol-2-yl)propoxy)phenyl)methanone], the IC50 runs as follows: under setting [1], less than 100 nM; under setting [3], 54 nM.
Regarding `O=C(c1ccc(OC[C@@H](O)Cn2ncnn2)cc1)N1CC[C@@H](c2ccc(F)cc2)C1` [Example 14, ((S)-3-(4-Fluorophenyl)pyrrolidin-1-yl)(4-((S)-2-hydroxy-3-(2H-tetrazol-2-yl)propoxy)phenyl)methanone], the IC50 was 1000 to 5000 nM under setting [1] and 1200 nM under setting [3].
As for `O=C(c1ccc(OC[C@H](O)Cn2cncn2)cc1)N1CC[C@H](c2ccc(F)cc2)C1` [Example 15, ((R)-3-(4-fluorophenyl)pyrrolidin-1-yl)(4-((R)-2-hydroxy-3-(1H-1,2,4-triazol-1-yl)propoxy)phenyl)methanone], the IC50 by setting is: under setting [1], less than 100 nM; under setting [3], not above 50 nM.
As to `O=C(c1ccc(OC[C@H](O)Cn2nccn2)cc1)N1CC[C@H](c2ccc(F)cc2)C1` [Example 16, ((R)-3-(4-fluorophenyl)pyrrolidin-1-yl)(4-((R)-2-hydroxy-3-(2H-1,2,3-triazol-2-yl)propoxy)phenyl)methanone], the IC50 was less than 100 nM under setting [1] and not above 50 nM under setting [3].
Turning to `O=C(c1ccc(OC[C@H](O)Cn2ccnn2)cc1)N1CC[C@H](c2ccc(F)cc2)C1` [Example 17, ((R)-3-(4-fluorophenyl)pyrrolidin-1-yl)(4-((R)-2-hydroxy-3-(1H-1,2,3-triazol-1-yl)propoxy)phenyl)methanone], the IC50 is less than 100 nM under setting [1] and not above 50 nM under setting [3].
Consider `O=C(c1ccc(OC[C@H](O)Cn2cnnc2)cc1)N1CC[C@H](c2ccc(F)cc2)C1` [Example 18, ((R)-3-(4-fluorophenyl)pyrrolidin-1-yl)(4-((R)-2-hydroxy-3-(4H-1,2,4-triazol-4-yl)propoxy)phenyl)methanone], for which, under setting [1], the IC50 lay in the range of 1000 to 5000 nM.
As to `O=C(c1ccc(OC[C@H](O)Cn2cccn2)cc1)N1CC[C@H](c2ccc(F)cc2)C1` [Example 19, ((R)-3-(4-fluorophenyl)pyrrolidin-1-yl)(4-((R)-2-hydroxy-3-(1H-pyrazol-1-yl)propoxy)phenyl)methanone], the IC50 by setting is: under setting [1], less than 100 nM; under setting [3], not above 50 nM.

The values are drawn from US11453657B2 (GlaxoSmithKline Intellectual Property Development Limited, priority 2018, dated 2022).
